Experimental data as given in ChEMBL document CHEMBL4507293 (2021).

Assays:
[1] = biological target: Cyclin-dependent kinase 14 (Homo sapiens) (UniProt O94921); details: Compound concentration 100.0 nM
[2] = biological target: Serine/threonine-protein kinase Nek7 (Homo sapiens) (UniProt Q8TDX7); details: Compound concentration 100.0 nM
[3] = tested on: Tyrosine-protein kinase ABL1 (Homo sapiens), P00519 [F317I]; details: Compound concentration 100.0 nM
[4] = biological target: Serine/threonine-protein kinase RIO3 (Homo sapiens) (UniProt O14730); details: Compound concentration 100.0 nM
[5] = biological target: Membrane-associated tyrosine- and threonine-specific cdc2-inhibitory kinase (Homo sapiens) (UniProt Q99640); details: Compound concentration 100.0 nM
[6] = tested on: Receptor-type tyrosine-protein kinase FLT3 (Homo sapiens), P36888 [R834Q]; details: Compound concentration 100.0 nM
[7] = biological target: Tyrosine-protein kinase Tec (Homo sapiens) (UniProt P42680); details: Compound concentration 100.0 nM
[8] = biological target: Serine/threonine-protein kinase MRCK alpha (Homo sapiens) (UniProt Q5VT25); details: Compound concentration 100.0 nM
[9] = biological target: Serine/threonine-protein kinase Nek1 (Homo sapiens) (UniProt Q96PY6); details: Compound concentration 100.0 nM
Serine/threonine-protein kinase Nek1 (Homo sapiens), sequence (Q96PY6 whole entry): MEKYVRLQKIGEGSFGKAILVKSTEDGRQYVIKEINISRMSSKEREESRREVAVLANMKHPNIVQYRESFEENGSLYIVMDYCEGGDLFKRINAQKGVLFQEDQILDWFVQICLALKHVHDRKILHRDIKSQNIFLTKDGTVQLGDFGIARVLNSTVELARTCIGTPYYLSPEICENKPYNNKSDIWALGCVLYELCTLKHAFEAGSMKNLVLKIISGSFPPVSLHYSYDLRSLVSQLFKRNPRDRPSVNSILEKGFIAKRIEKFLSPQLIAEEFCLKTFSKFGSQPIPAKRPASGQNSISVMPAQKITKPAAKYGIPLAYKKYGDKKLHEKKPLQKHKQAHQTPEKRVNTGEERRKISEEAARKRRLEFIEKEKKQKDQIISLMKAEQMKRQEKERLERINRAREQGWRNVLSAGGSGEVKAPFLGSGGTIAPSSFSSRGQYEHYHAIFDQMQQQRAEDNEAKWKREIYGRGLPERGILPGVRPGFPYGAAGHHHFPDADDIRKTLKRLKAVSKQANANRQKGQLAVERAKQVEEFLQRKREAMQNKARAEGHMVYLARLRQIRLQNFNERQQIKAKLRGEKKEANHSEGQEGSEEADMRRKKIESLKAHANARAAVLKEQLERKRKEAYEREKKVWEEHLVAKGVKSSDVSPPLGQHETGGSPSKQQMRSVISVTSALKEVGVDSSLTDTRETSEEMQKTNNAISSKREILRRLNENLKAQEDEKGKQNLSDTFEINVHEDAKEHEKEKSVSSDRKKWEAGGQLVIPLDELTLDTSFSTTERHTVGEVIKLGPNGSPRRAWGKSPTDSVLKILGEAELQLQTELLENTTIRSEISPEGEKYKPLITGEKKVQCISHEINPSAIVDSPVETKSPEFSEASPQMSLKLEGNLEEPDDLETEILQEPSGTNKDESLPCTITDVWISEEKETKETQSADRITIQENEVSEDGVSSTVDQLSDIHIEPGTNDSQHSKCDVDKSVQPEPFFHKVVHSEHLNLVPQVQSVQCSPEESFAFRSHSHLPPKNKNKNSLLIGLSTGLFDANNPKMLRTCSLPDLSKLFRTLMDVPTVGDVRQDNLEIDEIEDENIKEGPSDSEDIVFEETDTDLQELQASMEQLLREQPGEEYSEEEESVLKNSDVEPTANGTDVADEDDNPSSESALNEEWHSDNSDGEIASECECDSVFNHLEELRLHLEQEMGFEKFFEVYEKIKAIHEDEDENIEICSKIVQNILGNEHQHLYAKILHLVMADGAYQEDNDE

[10] = biological target: Aurora kinase C (Homo sapiens) (UniProt Q9UQB9); details: Compound concentration 100.0 nM
[11] = biological target: Serine/threonine-protein kinase MARK2 (Homo sapiens) (UniProt Q7KZI7); details: Compound concentration 100.0 nM
[12] = biological target: Sigma non-opioid intracellular receptor 1 (Homo sapiens) (UniProt Q99720); details: Compound concentration 10.0 uM
Sigma non-opioid intracellular receptor 1 (Homo sapiens), sequence (Q99720 whole entry): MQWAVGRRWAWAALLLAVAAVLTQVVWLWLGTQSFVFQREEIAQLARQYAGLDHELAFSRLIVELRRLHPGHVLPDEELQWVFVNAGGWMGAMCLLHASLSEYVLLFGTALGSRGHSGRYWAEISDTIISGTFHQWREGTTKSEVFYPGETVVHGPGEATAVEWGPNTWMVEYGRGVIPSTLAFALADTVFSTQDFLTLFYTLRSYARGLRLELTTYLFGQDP

[13] = biological target: Serine/threonine-protein kinase 24 (Homo sapiens) (UniProt Q9Y6E0); details: Compound concentration 100.0 nM
Serine/threonine-protein kinase 24 (Homo sapiens), sequence (Q9Y6E0 whole entry, looked up): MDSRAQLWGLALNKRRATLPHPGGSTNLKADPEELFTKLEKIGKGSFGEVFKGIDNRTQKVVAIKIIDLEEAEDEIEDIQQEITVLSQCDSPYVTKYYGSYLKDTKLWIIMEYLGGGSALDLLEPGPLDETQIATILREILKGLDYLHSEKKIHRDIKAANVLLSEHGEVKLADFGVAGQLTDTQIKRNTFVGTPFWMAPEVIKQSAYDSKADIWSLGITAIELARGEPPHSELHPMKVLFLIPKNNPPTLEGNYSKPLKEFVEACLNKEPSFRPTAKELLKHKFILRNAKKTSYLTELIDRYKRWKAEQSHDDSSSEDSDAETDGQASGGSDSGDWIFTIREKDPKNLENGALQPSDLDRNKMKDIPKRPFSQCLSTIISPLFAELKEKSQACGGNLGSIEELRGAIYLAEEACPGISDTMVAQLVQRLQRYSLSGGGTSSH

[14] = biological target: Serine/threonine-protein kinase TAO3 (Homo sapiens) (UniProt Q9H2K8); details: Compound concentration 100.0 nM
[15] = biological target: Mitogen-activated protein kinase kinase kinase 3 (Homo sapiens) (UniProt Q99759); details: Compound concentration 100.0 nM
Mitogen-activated protein kinase kinase kinase 3 (Homo sapiens), sequence (Q99759 whole entry): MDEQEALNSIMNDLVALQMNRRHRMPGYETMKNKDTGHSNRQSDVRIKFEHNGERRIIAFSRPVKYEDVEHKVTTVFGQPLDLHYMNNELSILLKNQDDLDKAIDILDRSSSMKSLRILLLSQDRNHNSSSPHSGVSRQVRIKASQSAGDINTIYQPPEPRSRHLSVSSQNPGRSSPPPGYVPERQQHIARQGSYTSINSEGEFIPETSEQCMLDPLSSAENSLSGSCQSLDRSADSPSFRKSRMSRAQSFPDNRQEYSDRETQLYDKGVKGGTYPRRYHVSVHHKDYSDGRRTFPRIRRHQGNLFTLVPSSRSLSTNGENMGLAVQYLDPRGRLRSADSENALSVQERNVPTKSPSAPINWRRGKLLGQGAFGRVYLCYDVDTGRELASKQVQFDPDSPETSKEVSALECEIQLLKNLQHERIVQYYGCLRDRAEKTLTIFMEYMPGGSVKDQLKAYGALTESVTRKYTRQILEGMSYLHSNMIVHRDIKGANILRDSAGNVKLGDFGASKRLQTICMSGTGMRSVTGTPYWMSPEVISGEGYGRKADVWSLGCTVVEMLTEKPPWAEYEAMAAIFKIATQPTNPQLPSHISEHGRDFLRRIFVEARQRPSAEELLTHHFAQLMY

[16] = tested on: Receptor-type tyrosine-protein kinase FLT3 (Homo sapiens), P36888 [N841I]; details: Compound concentration 100.0 nM
[17] = biological target: MAP kinase-interacting serine/threonine-protein kinase 1 (Homo sapiens) (UniProt Q9BUB5); details: Compound concentration 100.0 nM
[18] = biological target: Interleukin-1 receptor-associated kinase 4 (Homo sapiens) (UniProt Q9NWZ3); details: Compound concentration 100.0 nM
[19] = biological target: Protein kinase C iota type (Homo sapiens) (UniProt P41743); details: Compound concentration 100.0 nM
Protein kinase C iota type (Homo sapiens), sequence (P41743 whole entry, canonical isoform): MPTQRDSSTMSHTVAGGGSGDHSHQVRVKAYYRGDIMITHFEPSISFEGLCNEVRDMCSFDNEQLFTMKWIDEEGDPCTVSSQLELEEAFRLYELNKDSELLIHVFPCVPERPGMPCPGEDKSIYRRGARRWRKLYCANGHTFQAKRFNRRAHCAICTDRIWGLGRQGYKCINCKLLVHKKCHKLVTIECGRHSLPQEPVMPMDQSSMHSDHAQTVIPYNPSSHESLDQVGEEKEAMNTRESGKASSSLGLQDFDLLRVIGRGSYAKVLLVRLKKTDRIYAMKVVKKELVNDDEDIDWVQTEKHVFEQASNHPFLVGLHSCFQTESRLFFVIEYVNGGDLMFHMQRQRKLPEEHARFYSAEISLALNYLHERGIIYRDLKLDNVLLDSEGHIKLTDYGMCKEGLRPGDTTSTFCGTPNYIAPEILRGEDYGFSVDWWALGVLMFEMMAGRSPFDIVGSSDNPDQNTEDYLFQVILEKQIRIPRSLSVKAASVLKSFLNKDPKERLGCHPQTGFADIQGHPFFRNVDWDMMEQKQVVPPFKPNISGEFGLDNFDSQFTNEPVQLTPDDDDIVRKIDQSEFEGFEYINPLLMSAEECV

[20] = biological target: Phosphatidylinositol 4,5-bisphosphate 3-kinase catalytic subunit delta isoform (Homo sapiens) (UniProt O00329); details: Compound concentration 100.0 nM
[21] = biological target: BMP-2-inducible protein kinase (Homo sapiens) (UniProt Q9NSY1); details: Compound concentration 100.0 nM
[22] = tested on: Receptor-type tyrosine-protein kinase FLT3 (Homo sapiens), P36888 [UNDEFINED MUTATION]; details: Compound concentration 100.0 nM
[23] = biological target: Histamine H4 receptor (Homo sapiens) (UniProt Q9H3N8); details: Compound concentration 10.0 uM
[24] = tested on: Mast/stem cell growth factor receptor Kit (Homo sapiens), P10721 [V559D,V654A]; details: Compound concentration 100.0 nM
[25] = tested on: Tyrosine-protein kinase ABL1 (Homo sapiens), P00519 [Q252H]; details: Compound concentration 100.0 nM
[26] = biological target: Macrophage-stimulating protein receptor (Homo sapiens) (UniProt Q04912); details: Compound concentration 100.0 nM
[27] = biological target: 5-hydroxytryptamine receptor 2A (Homo sapiens) (UniProt P28223); details: Compound concentration 10.0 uM
[28] = biological target: 5'-AMP-activated protein kinase catalytic subunit alpha-2 (Homo sapiens) (UniProt P54646); details: Compound concentration 100.0 nM
5'-AMP-activated protein kinase catalytic subunit alpha-2 (Homo sapiens), sequence (P54646 whole entry, looked up): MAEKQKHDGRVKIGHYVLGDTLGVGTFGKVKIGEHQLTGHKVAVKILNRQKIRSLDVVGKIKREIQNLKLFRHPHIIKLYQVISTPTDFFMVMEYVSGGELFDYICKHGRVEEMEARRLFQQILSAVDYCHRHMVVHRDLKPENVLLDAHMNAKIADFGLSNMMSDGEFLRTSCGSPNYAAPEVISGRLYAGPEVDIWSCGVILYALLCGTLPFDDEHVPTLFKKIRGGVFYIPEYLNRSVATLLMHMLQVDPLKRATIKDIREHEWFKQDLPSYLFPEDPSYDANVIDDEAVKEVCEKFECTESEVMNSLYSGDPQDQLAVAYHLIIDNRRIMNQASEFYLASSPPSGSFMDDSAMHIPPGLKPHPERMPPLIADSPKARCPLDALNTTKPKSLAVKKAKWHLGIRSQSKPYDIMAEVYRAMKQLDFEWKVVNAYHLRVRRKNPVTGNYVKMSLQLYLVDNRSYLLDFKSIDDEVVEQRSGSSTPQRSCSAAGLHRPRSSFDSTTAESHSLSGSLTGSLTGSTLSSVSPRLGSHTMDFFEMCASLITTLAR

[29] = biological target: Serine/threonine-protein kinase pim-2 (Homo sapiens) (UniProt Q9P1W9); details: Compound concentration 100.0 nM
[30] = biological target: 3',5'-cyclic-AMP phosphodiesterase 4A (Homo sapiens, UniProt P27815); test: Biochemical assay (PDE4A)
[31] = biological target: STE20-like serine/threonine-protein kinase (Homo sapiens) (UniProt Q9H2G2); details: Compound concentration 100.0 nM
[32] = tested on: Epidermal growth factor receptor (Homo sapiens), P00533 [L858R,T790M]; details: Compound concentration 100.0 nM
[33] = biological target: Mu-type opioid receptor (Homo sapiens) (UniProt P35372); details: Compound concentration 10.0 uM
[34] = biological target: Mitogen-activated protein kinase 7 (Homo sapiens) (UniProt Q13164); details: Compound concentration 100.0 nM
Mitogen-activated protein kinase 7 (Homo sapiens), sequence (Q13164 2-816 limits assumed): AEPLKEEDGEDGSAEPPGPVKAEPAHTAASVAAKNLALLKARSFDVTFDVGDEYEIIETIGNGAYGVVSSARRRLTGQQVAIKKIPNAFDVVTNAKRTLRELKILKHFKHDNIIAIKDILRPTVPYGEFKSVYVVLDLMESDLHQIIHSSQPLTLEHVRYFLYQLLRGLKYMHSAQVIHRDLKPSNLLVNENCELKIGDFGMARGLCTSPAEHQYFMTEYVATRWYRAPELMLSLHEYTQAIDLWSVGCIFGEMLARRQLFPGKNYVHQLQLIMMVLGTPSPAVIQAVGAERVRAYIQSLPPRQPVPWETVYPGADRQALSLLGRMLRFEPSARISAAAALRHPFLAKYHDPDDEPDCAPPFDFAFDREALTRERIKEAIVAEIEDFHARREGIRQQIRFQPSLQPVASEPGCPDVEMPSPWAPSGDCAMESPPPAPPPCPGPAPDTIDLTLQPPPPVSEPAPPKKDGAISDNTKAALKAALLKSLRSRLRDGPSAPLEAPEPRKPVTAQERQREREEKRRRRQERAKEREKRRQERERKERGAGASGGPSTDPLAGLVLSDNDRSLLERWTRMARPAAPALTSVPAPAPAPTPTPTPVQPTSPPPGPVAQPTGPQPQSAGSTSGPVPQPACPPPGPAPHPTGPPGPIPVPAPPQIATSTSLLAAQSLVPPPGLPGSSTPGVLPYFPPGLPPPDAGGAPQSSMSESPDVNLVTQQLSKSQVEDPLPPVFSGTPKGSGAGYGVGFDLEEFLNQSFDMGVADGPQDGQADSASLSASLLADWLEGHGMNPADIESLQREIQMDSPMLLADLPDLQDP

[35] = biological target: Serine/threonine-protein kinase NIM1 (Homo sapiens) (UniProt Q8IY84); details: Compound concentration 100.0 nM
[36] = biological target: Serine/threonine-protein kinase D1 (Homo sapiens) (UniProt Q15139); details: Compound concentration 100.0 nM
[37] = biological target: D(1B) dopamine receptor (Homo sapiens) (UniProt P21918); details: Compound concentration 10.0 uM
[38] = biological target: Dual specificity calcium/calmodulin-dependent 3',5'-cyclic nucleotide phosphodiesterase 1A (Homo sapiens, UniProt P54750); test: Biochemical assay (PDE1A)
[39] = biological target: Serine/threonine-protein kinase PAK 6 (Homo sapiens) (UniProt Q9NQU5); details: Compound concentration 100.0 nM
[40] = biological target: Serine/threonine-protein kinase TAO1 (Homo sapiens) (UniProt Q7L7X3); details: Compound concentration 100.0 nM
[41] = tested on: Tyrosine-protein kinase ABL1 (Homo sapiens), P00519 [T315I]; details: Compound concentration 100.0 nM
[42] = tested on: Mast/stem cell growth factor receptor Kit (Homo sapiens), P10721 [A829P]; details: Compound concentration 100.0 nM
[43] = tested on: Phosphatidylinositol 4,5-bisphosphate 3-kinase catalytic subunit alpha isoform (Homo sapiens), P42336 [E545K]; details: Compound concentration 100.0 nM
[44] = biological target: Tyrosine-protein kinase BTK (Homo sapiens) (UniProt Q06187); details: Compound concentration 100.0 nM

Cyclin-dependent kinase 14 (Homo sapiens), sequence (O94921 whole entry): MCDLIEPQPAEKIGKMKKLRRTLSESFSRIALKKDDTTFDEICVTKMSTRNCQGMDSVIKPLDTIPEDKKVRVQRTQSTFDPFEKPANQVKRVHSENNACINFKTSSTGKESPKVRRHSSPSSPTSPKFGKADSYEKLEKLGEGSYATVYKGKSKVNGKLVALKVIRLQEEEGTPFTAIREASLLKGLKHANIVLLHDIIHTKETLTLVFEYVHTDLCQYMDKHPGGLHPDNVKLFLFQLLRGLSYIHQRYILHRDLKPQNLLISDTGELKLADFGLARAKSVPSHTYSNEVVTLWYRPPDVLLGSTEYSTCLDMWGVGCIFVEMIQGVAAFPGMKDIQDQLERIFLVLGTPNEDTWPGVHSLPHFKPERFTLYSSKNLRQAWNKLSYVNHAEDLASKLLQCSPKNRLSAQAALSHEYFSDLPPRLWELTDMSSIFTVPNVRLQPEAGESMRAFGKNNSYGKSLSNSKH

COCCOc1nc(-c2ccc(Cl)nc2)nc2c1CN(C(=O)c1ncn3ccccc13)CC2 [THPP-1]
5.9 µM (not active): Ki [30]
inactive: residual activity [1] 100% | residual activity [2] 100% | residual activity [3] 100% | residual activity [4] 100% | residual activity [5] 100% | residual activity [6] 65% | residual activity [7] 100% | residual activity [8] 100% | residual activity [9] 100% | residual activity [10] 95% | residual activity [11] 100% | inhibition [12] 38.1% | residual activity [13] 100% | residual activity [14] 100% | residual activity [15] 96% | residual activity [16] 100% | residual activity [17] 77% | residual activity [18] 100% | residual activity [19] 100% | residual activity [20] 94% | residual activity [21] 90% | residual activity [22] 100% | inhibition [23] -6.39% | residual activity [24] 75% | residual activity [25] 74% | residual activity [26] 100% | inhibition [27] -1.4% | residual activity [28] 100% | residual activity [29] 98% | residual activity [31] 100% | residual activity [32] 100% | inhibition [33] -0.32% | residual activity [34] 100% | residual activity [35] 100% | residual activity [36] 90% | inhibition [37] -3.46% | residual activity [39] 100% | residual activity [40] 100% | residual activity [41] 100% | residual activity [42] 88% | residual activity [43] 71% | residual activity [44] 100%
> 50 µM (not active): Ki [38]

CC(C)CC(=O)N1CCc2nc(-c3ccc(Br)cc3)nc(N(C)Cc3ccccc3)c2C1 [THPP-1-NC]
9.83 µM (not active): Ki [30]
inactive: residual activity [1] 100% | residual activity [2] 100% | residual activity [3] 100% | residual activity [4] 100% | residual activity [5] 92% | residual activity [6] 65% | residual activity [7] 100% | residual activity [8] 100% | residual activity [9] 100% | residual activity [10] 100% | residual activity [11] 100% | inhibition [12] 49.4% | residual activity [13] 100% | residual activity [14] 100% | residual activity [15] 77% | residual activity [16] 100% | residual activity [17] 69% | residual activity [18] 100% | residual activity [19] 100% | residual activity [20] 82% | residual activity [21] 99% | residual activity [22] 92% | inhibition [23] -7.78% | residual activity [24] 98% | residual activity [25] 53% | residual activity [26] 100% | inhibition [27] 3% | residual activity [28] 100% | residual activity [29] 100% | residual activity [31] 100% | residual activity [32] 100% | inhibition [33] -0.75% | residual activity [34] 100% | residual activity [35] 100% | residual activity [36] 87% | inhibition [37] 19.4% | residual activity [39] 100% | residual activity [40] 100% | residual activity [41] 100% | residual activity [42] 97% | residual activity [43] 85% | residual activity [44] 100%
> 58.3 µM (not active): Ki [38]
